Data reported in patent publication US20230141600A1, “IMIDAZOPYRAZINE DERIVATIVES” (priority 2020, published 2023).
Counter-ions that a name gives are not always drawn.

These molecules were tested on Acinetobacter baumannii ATCC17961 (assay: 90% growth inhibitory concentration (IC90) determination, antimicrobial susceptibility testing). Conditions: Acinetobacter baumannii, ATCC17961, 16 h, 90% growth inhibition, Iso-Sensitest broth, OD 600 nm over 16 h, 35±2° C.; read-out: ATCC 17961 IC90.
Type: cell-based
Procedure: Antimicrobial Susceptibility Testing:
90% Growth Inhibitory Concentration (IC90) Determination
The in vitro antimicrobial activity of the compounds was determined according to the following procedure:
The assay used a 10-points Iso-Sensitest broth medium to measure quantitatively the in vitro activity of the compounds against Acinetobacter baumannii ATCC17961 and ATCC17978.
Stock compounds in DMSO were serially twofold diluted (e.g. range from 50 to 0.097 μM final concentration) in 384 wells microtiter plates and inoculated with 49 μl the bacterial suspension in Iso-Sensitest medium to have a final cell concentration of ˜5×10^(5) CFU/ml in a final volume/well of 50 ul/well. Microtiter plates were incubated at 35±2° C.
Bacterial cell growth was determined with the measurement of optical density at λ=600 nm each minutes over a time course of 16 h. Growth inhibition was calculated during the logarithmic growth of the bacterial cells with determination of the concentration inhibiting 50% (IC50) and 90% (IC90) of the growth.
Table 2 provides the 90% growth inhibitory concentrations (IC90) in micromoles per liter of the compounds of present invention obtained against the strain Acinetobacter baumannii ATCC17961.

Compound | IC90 [µM]
C[N+](C)(C)CC(=O)N1CCN(C(=O)c2ccc(Nc3nccn4c(-c5c[nH]nc5C(F)(F)F)cnc34)cc2Cl)CC1 [Example 62, [2-[4-[2-Chloro-4-[[3-[3-(trifluoromethyl)-1H-pyrazol-4-yl]imidazo[1,2-a]pyrazin-8-yl]amino]benzoyl]piperazin-1-yl]-2-oxo-ethyl]-trimethyl-ammonium Formate] | 0.449
COc1ccc(-c2cnc3c(Nc4ccc(C(=O)N[C@H]5CC[C@@H](NC(=O)C[N+](C)(C)C)CC5)c(C)c4)nccn23)c(F)c1F [Example 63, 2-(((1s,4s)-4-(4-((3-(2,3-Difluoro-4-methoxyphenyl)imidazo[1,2-a]pyrazin-8-yl)amino)-2-methylbenzamido)cyclohexyl)amino)-N,N,N-trimethyl-2-oxoethan-1-aminium Chloride] | 0.0811
Cc1cc(Nc2nccn3c(-c4cn(CC#N)nc4C(F)(F)F)cnc23)ccc1C(=O)N1CCN(C(=O)C[N+](C)(C)C)CC1 [Example 64, [2-[4-[4-[[3-[1-(Cyanomethyl)-3-(trifluoromethyl)pyrazol-4-yl]imidazo[1,2-a]pyrazin-8-yl]amino]-2-methyl-benzoyl]piperazin-1-yl]-2-oxo-ethyl]-trimethyl-ammonium Formate] | 0.78
C[N+](C)(C)CC(=O)N1CCN(C(=O)c2ccc(Nc3nccn4c(-c5cn(CC#N)nc5C(F)(F)F)cnc34)cc2Cl)CC1 [Example 65, [2-[4-[2-Chloro-4-[[3-[1-(cyanomethyl)-3-(trifluoromethyl)pyrazol-4-yl]imidazo[1,2-a]pyrazin-8-yl]amino]benzoyl]piperazin-1-yl]-2-oxo-ethyl]-trimethyl-ammonium Formate] | 0.546
COc1ccc(-c2cnc3c(Nc4ccc(C(=O)N[C@H]5C[C@@H](NCC[N+](C)(C)C)C5)c(Cl)c4)nccn23)c(F)c1F [Example 66, 2-[[3-[[2-Chloro-4-[[3-(2,3-difluoro-4-methoxy-phenyl)imidazo[1,2-a]pyrazin-8-yl]amino]benzoyl]amino]cyclobutyl]amino]ethyl-trimethyl-ammonium Formate] | 0.0572
COc1ccc(-c2cnc3c(Nc4ccc(C(=O)N[C@H]5CCN(C(=O)C[N+](C)(C)C)C5)c(C)c4)nccn23)c(F)c1F [Example 67, (S)-2-(3-(4-((3-(2,3-Difluoro-4-methoxyphenyl)imidazo[1,2-a]pyrazin-8-yl)amino)-2-methylbenzamido)pyrrolidin-1-yl)-N,N,N-trimethyl-2-oxoethan-1-aminium Chloride] | 0.0448
COc1ccc(-c2cnc3c(Nc4ccc(C(=O)NC5CCCN(C(=O)C[N+](C)(C)C)C5)c(C)c4)nccn23)c(F)c1F (stereo not drawn) [Example 68, 2-(3-(4-((3-(2,3-Difluoro-4-methoxyphenyl)imidazo[1,2-a]pyrazin-8-yl)amino)-2-methylbenzamido)piperidin-1-yl)-N,N,N-trimethyl-2-oxoethan-1-aminium Chloride] | 0.168
COc1ccc(-c2cnc3c(Nc4ccc(C(=O)N[C@H]5CC[C@H](NC(=O)C[N+](C)(C)C)CC5)c(C)c4)nccn23)c(F)c1F [Example 69, 2-(((1r,4r)-4-(4-((3-(2,3-Difluoro-4-methoxyphenyl)imidazo[1,2-a]pyrazin-8-yl)amino)-2-methylbenzamido)cyclohexyl)amino)-N,N,N-trimethyl-2-oxoethan-1-aminium Chloride] | 0.263
COc1ccc(-c2cnc3c(Nc4ccc(C(=O)N[C@@H]5CCN(C(=O)C[N+](C)(C)C)C5)c(C)c4)nccn23)c(F)c1F [Example 70, (R)-2-(3-(4-((3-(2,3-difluoro-4-methoxyphenyl)imidazo[1,2-a]pyrazin-8-yl)amino)-2-methylbenzamido)pyrrolidin-1-yl)-N,N,N-trimethyl-2-oxoethan-1-aminium Chloride] | 0.0445
CCc1cc(Nc2nccn3c(-c4ccc(OC)c(F)c4F)cnc23)ccc1C(=O)NC1CN(C(=O)C[N+](C)(C)CC(N)=O)C1 [Example 71, 2-Amino-N-(2-(3-(4-((3-(2,3-difluoro-4-methoxyphenyl)imidazo[1,2-a]pyrazin-8-yl)amino)-2-ethylbenzamido)azetidin-1-yl)-2-oxoethyl)-N,N-dimethyl-2-oxoethan-1-aminium Formate] | 0.0677
COc1ccc(-c2cnc3c(Nc4ccc(C(=O)N[C@H]5C[C@@H](NC(=O)C[N+](C)(C)C)C5)c(C)c4)nccn23)c(F)c1F [Example 72, 2-(((1s,3s)-3-(4-((3-(2,3-Difluoro-4-methoxyphenyl)imidazo[1,2-a]pyrazin-8-yl)amino)-2-methylbenzamido)cyclobutyl)amino)-N,N,N-trimethyl-2-oxoethan-1-aminium Chloride] | 0.0403
COc1ccc(-c2cnc3c(Nc4ccc(C(=O)NCCC[N+](C)(C)CCO)c(Cl)c4)nccn23)c(F)c1F [Example 73, 3-(2-chloro-4-((3-(2,3-difluoro-4-methoxyphenyl)imidazo[1,2-a]pyrazin-8-yl)amino)benzamido)-N-(2-hydroxyethyl)-N,N-dimethylpropan-1-aminium Formate] | 0.121
CCc1cc(Nc2nccn3c(-c4ccc(OC)c(F)c4F)cnc23)ccc1C(=O)NCCOCC[N+](C)(C)CC#N [Example 74, N-(Cyanomethyl)-2-(2-(4-((3-(2,3-difluoro-4-methoxyphenyl)imidazo[1,2-a]pyrazin-8-yl)amino)-2-ethylbenzamido)ethoxy)-N,N-dimethylethan-1-aminium Formate] | 0.031
CCOC(=O)C[N+](C)(C)CCOCCNC(=O)c1ccc(Nc2nccn3c(-c4ccc(OC)c(F)c4F)cnc23)cc1CC [Example 75, N-(2-(2-(4-((3-(2,3-Difluoro-4-methoxyphenyl)imidazo[1,2-a]pyrazin-8-yl)amino)-2-ethylbenzamido)ethoxy)ethyl)-2-ethoxy-N,N-dimethyl-2-oxoethan-1-aminium Formate] | 0.0658
CCc1cc(Nc2nccn3c(-c4ccc(OC)c(F)c4F)cnc23)ccc1C(=O)NCCCCC[N+](C)(C)CC(N)=O [Example 76, Mono(N-(2-amino-2-oxoethyl)-5-(4-((3-(2,3-difluoro-4-methoxyphenyl)imidazo[1,2-a]pyrazin-8-yl)amino)-2-ethylbenzamido)-N,N-dimethylpentan-1-aminium) monoformate Monoiodide] | 0.0274
CCc1cc(Nc2nccn3c(-c4ccc(OC)c(F)c4F)cnc23)ccc1C(=O)N[C@H]1CC[C@H](NC(=O)C[N+](C)(C)C)CC1 [Example 77, Trans-[2-[[4-[[4-[[3-(2,3-Difluoro-4-methoxyphenyl)imidazo[1,2-a]pyrazin-8-yl]amino]-2-ethylbenzoyl]amino]cyclohexyl]amino]-2-oxoethyl]-trimethylazanium formate] | 0.342
CCc1cc(Nc2nccn3c(-c4cn(CC#N)nc4C(F)(F)F)cnc23)ccc1C(=O)NCCOCC[N+]1(CC#N)CCOCC1 [Example 78, 4-(Cyanomethyl)-4-(2-(2-(4-((3-(1-(cyanomethyl)-3-(trifluoromethyl)-1H-pyrazol-4-yl)imidazo[1,2-a]pyrazin-8-yl)amino)-2-ethylbenzamido)ethoxy)ethyl)morpholin-4-ium Formate] | 0.467

Same assay, conditions: Acinetobacter baumannii, ATCC17961, 16 h, read-out: ATCC 17961 IC90

Compound | IC90 [µM]
C[N+](C)(C)CC(=O)N[C@H]1C[C@@H](NC(=O)c2ccc(Nc3nccn4c(-c5c[nH]nc5C(F)(F)F)cnc34)cc2Cl)C1 [Example 61, [2-[[3-[[2-Chloro-4-[[3-[3-(trifluoromethyl)-1H-pyrazol-4-yl]imidazo[1,2-a]pyrazin-8-yl]amino]benzoyl]amino]cyclobutyl]amino]-2-oxo-ethyl]-trimethyl-ammonium Formate] | 0.478
